Reference: US6352958B1, “Cycloimido-substituted benzofused heterocyclic herbicides” (FMC Corporation, priority 1997, dated 2002)

Columns and labels:
Type in all cases: in vivo
[1] = test system: blackgrass (Aloepecurus myosuroides); test: Preemergence herbicidal activity, blackgrass; settings: Rate of Application 0.3 Kg/Ha, examined after 12-17 days
[2] = test system: velvetleaf (Abutilon theophrasti); test: Postemergence herbicidal activity, velvetleaf; settings: rate of application 0.3 Kg/Ha, rated after 12-17 days
[3] = test system: velvetleaf (Abutilon theophrasti); test: Preemergence herbicidal activity, velvetleaf; settings: Rate of Application 0.3 Kg/Ha, examined after 12-17 days
[4] = test system: morningglory (Ipomea lacunosa or Ipomea hederacea); test: Preemergence herbicidal activity, morningglory; settings: Rate of Application 0.3 Kg/Ha, examined after 12-17 days
[5] = test system: field corn (Zea mays var. Pioneer 3732); test: Preemergence herbicidal activity, corn; settings: Rate of Application 0.3 Kg/Ha, examined after 12-17 days
[6] = test system: common chickweed (Stellaria media); test: Postemergence herbicidal activity, chickweed; settings: rate of application 0.3 Kg/Ha, rated after 12-17 days
[7] = test system: green foxtail (Setaria viridis); test: Postemergence herbicidal activity, green foxtail; settings: rate of application 0.3 Kg/Ha, rated after 12-17 days
[8] = test system: common cocklebur (Xanthium strumarium L.); test: Postemergence herbicidal activity, cocklebur; settings: rate of application 0.3 Kg/Ha, rated after 12-17 days
[9] = test system: green foxtail (Setaria viridis); test: Preemergence herbicidal activity, green foxtail; settings: Rate of Application 0.3 Kg/Ha, examined after 12-17 days
[10] = test system: soybean (Glycine max var. Winchester); test: Preemergence herbicidal activity, soybean; settings: Rate of Application 0.3 Kg/Ha, examined after 12-17 days
[11] = test system: wheat (Triticum aestivum var. Lew); test: Postemergence herbicidal activity, wheat; settings: rate of application 0.3 Kg/Ha, rated after 12-17 days
[12] = test system: Johnsongrass (Sorghum halepense); test: Preemergence herbicidal activity, johnsongrass; settings: Rate of Application 0.3 Kg/Ha, examined after 12-17 days
[13] = test system: blackgrass (Aloepecurus myosuroides); test: Postemergence herbicidal activity, blackgrass; settings: rate of application 0.3 Kg/Ha, rated after 12-17 days
[14] = test system: common cocklebur (Xanthium strumarium L.); test: Preemergence herbicidal activity, cocklebur; settings: Rate of Application 0.3 Kg/Ha, examined after 12-17 days
[15] = test system: field corn (Zea mays var. Pioneer 3732); test: Postemergence herbicidal activity, corn; settings: rate of application 0.3 Kg/Ha, rated after 12-17 days
[16] = test system: wheat (Triticum aestivum var. Lew); test: Preemergence herbicidal activity, wheat; settings: Rate of Application 0.3 Kg/Ha, examined after 12-17 days
[17] = test system: Johnsongrass (Sorghum halepense); test: Postemergence herbicidal activity, johnsongrass; settings: rate of application 0.3 Kg/Ha, rated after 12-17 days
[18] = test system: morningglory (Ipomea lacunosa or Ipomea hederacea); test: Postemergence herbicidal activity, morningglory; settings: rate of application 0.3 Kg/Ha, rated after 12-17 days
[19] = test system: soybean (Glycine max var. Winchester); test: Postemergence herbicidal activity, soybean; settings: rate of application 0.3 Kg/Ha, rated after 12-17 days
[20] = test system: common chickweed (Stellaria media); test: Preemergence herbicidal activity, chickweed; settings: Rate of Application 0.3 Kg/Ha, examined after 12-17 days

Structure (SMILES)	PREEMERGENCE HERBICIDAL ACTIVITY (% CONTROL) ALOMY [1]	Postemergence herbicidal activity (% control) ABUTH [2]	PREEMERGENCE HERBICIDAL ACTIVITY (% CONTROL) ABUTH [3]	PREEMERGENCE HERBICIDAL ACTIVITY (% CONTROL) IPOSS [4]	PREEMERGENCE HERBICIDAL ACTIVITY (% CONTROL) CRN [5]	Postemergence herbicidal activity (% control) STEME [6]	Postemergence herbicidal activity (% control) SETVI [7]	Postemergence herbicidal activity (% control) XANPE [8]	PREEMERGENCE HERBICIDAL ACTIVITY (% CONTROL) SETVI [9]	PREEMERGENCE HERBICIDAL ACTIVITY (% CONTROL) SOY [10]	Postemergence herbicidal activity (% control) WHT [11]	PREEMERGENCE HERBICIDAL ACTIVITY (% CONTROL) SORHA [12]	Postemergence herbicidal activity (% control) ALOMY [13]	PREEMERGENCE HERBICIDAL ACTIVITY (% CONTROL) XANPE [14]	Postemergence herbicidal activity (% control) CRN [15]	PREEMERGENCE HERBICIDAL ACTIVITY (% CONTROL) WHT [16]	Postemergence herbicidal activity (% control) SORHA [17]	Postemergence herbicidal activity (% control) IPOSS [18]	Postemergence herbicidal activity (% control) SOY [19]	PREEMERGENCE HERBICIDAL ACTIVITY (% CONTROL) STEME [20]	also measured
CC(OC(=O)NCc1ccccc1)c1cc2c(Cl)cc(F)c(-n3c(=O)cc(C(F)(F)F)n(C)c3=O)c2o1 (centres unmarked) [Compound 250]	60%	100%	100%	100%	50%	80%	100%	100%	100%	80%	50%	70%	40%	100%	80%	40%	100%	100%	95%	–	–
Cn1c(C(F)(F)F)cc(=O)n(-c2c(F)cc(Cl)c3cc(CCCC#N)oc23)c1=O [Compound 256]	70%	100%	100%	100%	95%	100%	100%	100%	100%	100%	80%	90%	80%	–	90%	80%	100%	100%	100%	100%	–
Cn1c(C(F)(F)F)cc(=O)n(-c2c(F)cc(Cl)c3[nH]cnc23)c1=O [Compound 362]	100%	100%	100%	100%	100%	100%	100%	–	100%	100%	100%	100%	100%	100%	100%	100%	100%	100%	100%	100%	–
CC(C)Oc1nc2c(-n3c(=O)cc(C(F)(F)F)n(C)c3=O)c(F)cc(Br)c2o1 [Compound 107]	75%	100%	100%	100%	90%	100%	100%	–	100%	80%	40%	100%	90%	40%	100%	60%	100%	100%	95%	100%	–
Cn1c(C(F)(F)F)cc(=O)n(-c2c(F)cc(Cl)c3[nH]c(C(F)(F)F)nc23)c1=O [Compound 365, 3-(4-CHLORO-6-FLUORO-2-TRIFLUOROMETHYLBENZIMIDAZOL-7-YL)-1-METHYL-6-TRIFLUOROMETHYL-2,4(1H,3H)-PYRIMIDINEDIONE]	–	–	–	–	–	–	–	–	–	–	–	–	–	–	–	–	–	–	–	–	inhibition at 300 g/ha ([1]; Alopecurus myosuroides, pre-emergence, read-out: PREEMERGENCE HERBICIDAL ACTIVITY (% CONTROL) ALOMY): 60%; inhibition at 300 g/ha ([2]; Abutilon theophrasti, post-emergence, read-out: Postemergence herbicidal activity (% control) ABUTH): 100%; inhibition at 300 g/ha ([3]; Abutilon theophrasti, pre-emergence, read-out: PREEMERGENCE HERBICIDAL ACTIVITY (% CONTROL) ABUTH): 100%; inhibition at 300 g/ha ([4]; Ipomoea, pre-emergence, read-out: PREEMERGENCE HERBICIDAL ACTIVITY (% CONTROL) IPOSS): 100%; inhibition at 300 g/ha ([5]; Zea mays, pre-emergence, read-out: PREEMERGENCE HERBICIDAL ACTIVITY (% CONTROL) CRN): 30%; inhibition at 300 g/ha ([6]; Stellaria media, post-emergence, read-out: Postemergence herbicidal activity (% control) STEME): 100%; inhibition at 300 g/ha ([7]; Setaria viridis, post-emergence, read-out: Postemergence herbicidal activity (% control) SETVI): 80%; inhibition at 300 g/ha ([9]; Setaria viridis, pre-emergence, read-out: PREEMERGENCE HERBICIDAL ACTIVITY (% CONTROL) SETVI): 75%; inhibition at 300 g/ha ([11]; Triticum aestivum, post-emergence, read-out: Postemergence herbicidal activity (% control) WHT): 40%; inhibition at 300 g/ha ([12]; Sorghum halepense, pre-emergence, read-out: PREEMERGENCE HERBICIDAL ACTIVITY (% CONTROL) SORHA): 60%; inhibition at 300 g/ha ([13]; Alopecurus myosuroides, post-emergence, read-out: Postemergence herbicidal activity (% control) ALOMY): 70%; inhibition at 300 g/ha ([14]; Xanthium strumarium, pre-emergence, read-out: PREEMERGENCE HERBICIDAL ACTIVITY (% CONTROL) XANPE): 100%; inhibition at 300 g/ha ([15]; Zea mays, post-emergence, read-out: Postemergence herbicidal activity (% control) CRN): 70%; inhibition at 300 g/ha ([16]; Triticum aestivum, pre-emergence, read-out: PREEMERGENCE HERBICIDAL ACTIVITY (% CONTROL) WHT): 30%; inhibition at 300 g/ha ([17]; Sorghum halepense, post-emergence, read-out: Postemergence herbicidal activity (% control) SORHA): 30%; inhibition at 300 g/ha ([18]; Ipomoea, post-emergence, read-out: Postemergence herbicidal activity (% control) IPOSS): 100%; inhibition at 300 g/ha ([19]; Glycine max, post-emergence, read-out: Postemergence herbicidal activity (% control) SOY): 100%; inhibition at 300 g/ha ([20]; Stellaria media, pre-emergence, read-out: PREEMERGENCE HERBICIDAL ACTIVITY (% CONTROL) STEME): 100%
C=C(C)c1cc2c(Cl)cc(F)c(-n3c(=O)cc(C(F)(F)F)n(C)c3=O)c2o1 [Compound 231]	90%	100%	100%	100%	100%	100%	100%	–	100%	100%	70%	100%	100%	100%	100%	80%	100%	100%	100%	100%	–
